Measured values from patent US20140314740A1, “COMPOSITIONS AND METHODS FOR THE PREVENTION OR TREATMENT OF DIABETIC COMPLICATIONS” (The Johns Hopkins University, priority 2011, published 2014).
“Also recorded” adds a separate entry of the source.

How the values were obtained:
GLUT1 [1] = biological target: T1, GLUT1 (Mus musculus, UniProt P17809); assay: Glucose measurements in retina, brain and red blood cells (RBC) of streptozotocin-diabetic mice; type: in vivo, C57BL/6 mice; details: for retinal glucose levels: diabetic mice; for retinal glucose (summary statement): systemic treatment of diabetic mice, dose not given
T1 sequence (P17809 1-492): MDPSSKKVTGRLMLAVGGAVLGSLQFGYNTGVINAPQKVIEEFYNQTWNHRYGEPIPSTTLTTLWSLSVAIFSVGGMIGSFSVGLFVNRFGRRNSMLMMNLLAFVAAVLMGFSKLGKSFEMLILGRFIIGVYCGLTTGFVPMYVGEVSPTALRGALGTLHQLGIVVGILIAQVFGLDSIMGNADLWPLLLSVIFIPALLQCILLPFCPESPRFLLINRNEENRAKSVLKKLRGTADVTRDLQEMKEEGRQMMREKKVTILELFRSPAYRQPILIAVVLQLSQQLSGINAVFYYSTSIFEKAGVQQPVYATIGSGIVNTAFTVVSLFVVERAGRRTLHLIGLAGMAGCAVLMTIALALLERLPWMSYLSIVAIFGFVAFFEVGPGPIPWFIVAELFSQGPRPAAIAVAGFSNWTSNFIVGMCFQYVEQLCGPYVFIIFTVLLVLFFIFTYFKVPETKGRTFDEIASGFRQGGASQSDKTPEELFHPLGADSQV

adenylate cyclase = details: literature statement; cited from earlier work
superoxide radicals = assay: Superoxide radical assay (hydroethidine-induced fluorescence) in retinal homogenates of diabetic mice; type: in vivo, C57BL/6 mice; details: 1 month of diabetes; 1,9-dideoxyforskolin 0.1 mg/kg daily
Description: Superoxide radicals were measured in retinal homogenates by measuring dihydroethidine-induced fluorescence (Georgiou et al., 2008; Chen et al., 2009). Briefly, 200 μl reaction mixtures of freshly prepared retinal homogenates (20 μg protein) containing 2.5 μM dihydroethidium and 0.05 μg/μl salmon testes DNA were placed in 96-well microplates at 37° C. for 30 min. The fluorescence was measured at an excitation of 480 nm and an emission of 610 nm. Each sample was assayed in triplicate.

GLUT1 [2] = biological target: T2, GLUT1 (Homo sapiens, UniProt P11166); details: literature statement; cited from earlier work
T2 sequence (P11166 1-492): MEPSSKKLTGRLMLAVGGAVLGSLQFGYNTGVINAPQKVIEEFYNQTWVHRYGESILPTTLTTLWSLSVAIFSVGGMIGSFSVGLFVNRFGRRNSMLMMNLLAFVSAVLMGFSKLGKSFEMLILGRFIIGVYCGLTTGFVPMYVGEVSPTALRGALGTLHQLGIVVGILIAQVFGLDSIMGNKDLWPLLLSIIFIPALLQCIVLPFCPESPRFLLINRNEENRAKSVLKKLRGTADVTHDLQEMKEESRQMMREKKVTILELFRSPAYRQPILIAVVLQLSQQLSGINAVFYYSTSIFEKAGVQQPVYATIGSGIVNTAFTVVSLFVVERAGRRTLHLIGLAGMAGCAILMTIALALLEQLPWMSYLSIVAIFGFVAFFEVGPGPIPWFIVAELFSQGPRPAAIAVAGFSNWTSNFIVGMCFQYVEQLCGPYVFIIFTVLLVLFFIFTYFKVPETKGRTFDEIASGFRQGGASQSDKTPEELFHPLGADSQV

GLUT1 [3] = biological target: T2, GLUT1; details: literature statement; cited from earlier work; remark: listed apart in the source
tyrosine kinases = details: literature statement; by blocking the ATP binding site; cited from earlier work
[4] = mice diabetic 2 months, 1,9-dideoxyforskolin 1 mg/kg daily IP, 5 hr after last dose, vs untreated diabetics

SMILES | retinal glucose levels (GLUT1 [1]; 1,9-dideoxyforskolin 0.1 mg/kg/day IP, 2 or 4 weeks, vs untreated diabetics) | glucose levels in RBCs (GLUT1 [1]; [4]) | glucose levels in brain (GLUT1 [1]; [4]) | glucose levels in retina (GLUT1 [1]; [4]) | retinal glucose (summary statement) (GLUT1 [1]) | adenylate cyclase stimulation (adenylate cyclase) | increase of superoxide radicals (hydroethidine-induced fluorescence) in retinal homogenates (superoxide radicals) | binding to GLUT1 (GLUT1 [2]) | GLUT1 glucose transport (GLUT1 [3]) | tyrosine kinase inhibition (tyrosine kinases) | retinal glucose levels (GLUT1 [1]; genistein 50 mg/kg/day IP, 4 weeks, vs untreated diabetics)
C=C[C@@]1(C)CC(=O)[C@@H]2[C@@]3(C)CCCC(C)(C)[C@@H]3[C@H](O)[C@H](OC(C)=O)[C@@]2(C)O1 [1,9-dideoxyforskolin] | significantly reduced retinal glucose levels; also recorded: significant reduction in retinal glucose level | significant reduction; also recorded: decreased glucose levels | not in brain; also recorded: did not effect glucose levels | significant reduction; also recorded: decreased glucose levels | equivalent effect to that of forskolin | lacks adenylate cyclase-stimulating activity | significantly blocked | binds GLUT1 | blocks GLUT1-mediated glucose transport |  | 
O=c1c(-c2ccc(O)cc2)coc2cc(O)cc(O)c12 [genistein] |  |  |  |  | significantly reduced retinal glucose to the same levels seen in non-diabetics |  |  | binds to the ATP binding site of GLUT1 | suppresses glucose transport | inhibits tyrosine kinases | significantly reduced retinal glucose levels; also recorded: significant reduction in retinal glucose level
O=c1c(O)c(-c2cc(O)c(O)c(O)c2)oc2cc(O)cc(O)c12 [myricetin] |  |  |  |  |  |  |  | binds to the ATP binding site of GLUT1 |  |  | 
